US20080275058A1, “N-Substituted-1H-Quinoline-2,4-Diones, Preparation Method Thereof, And Pharmaceutical Composition Containing The Same” (KOREA RESEARCH INSTITUTE OF CHEMICAL TECHNOLOGY, priority 2005, published 2008)
Like-named read-outs stand apart in the source and are kept apart here.

Tests used:
[1] = biological target: T1, Human serotonin 5-HT6 receptor (Homo sapiens, UniProt P50406); experiment: [3H]LSD binding assay on cloned 5-HT6 receptor membranes
T1 construct: made in house; host or cells: insect Sf21 cells (baculovirus vector BacPAK8)
T1 sequence (P50406 whole entry): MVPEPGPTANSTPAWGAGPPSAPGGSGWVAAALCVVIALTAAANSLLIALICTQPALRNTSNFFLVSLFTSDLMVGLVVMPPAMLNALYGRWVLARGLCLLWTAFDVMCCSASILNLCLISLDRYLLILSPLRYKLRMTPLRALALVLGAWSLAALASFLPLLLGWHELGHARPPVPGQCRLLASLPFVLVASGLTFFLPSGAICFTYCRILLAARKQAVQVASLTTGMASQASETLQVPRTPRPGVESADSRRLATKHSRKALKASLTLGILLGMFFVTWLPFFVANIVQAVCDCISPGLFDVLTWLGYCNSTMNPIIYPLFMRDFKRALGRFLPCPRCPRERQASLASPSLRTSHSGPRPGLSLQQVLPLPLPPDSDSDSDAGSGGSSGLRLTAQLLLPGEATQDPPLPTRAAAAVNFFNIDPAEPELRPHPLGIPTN

5-HT7 = biological target: T2, 5-HT7 (Homo sapiens, UniProt P34969); experiment: Radioligand binding, 5-HT7 ([3H]LSD); conditions: Table 4; [3H]LSD 3 nM; read-out: Binding affinity, IC50 (nM) 5-HT7
T2 construct: purchased Euroscreen/BioSignal Packard Inc
T2 sequence (P34969 whole entry): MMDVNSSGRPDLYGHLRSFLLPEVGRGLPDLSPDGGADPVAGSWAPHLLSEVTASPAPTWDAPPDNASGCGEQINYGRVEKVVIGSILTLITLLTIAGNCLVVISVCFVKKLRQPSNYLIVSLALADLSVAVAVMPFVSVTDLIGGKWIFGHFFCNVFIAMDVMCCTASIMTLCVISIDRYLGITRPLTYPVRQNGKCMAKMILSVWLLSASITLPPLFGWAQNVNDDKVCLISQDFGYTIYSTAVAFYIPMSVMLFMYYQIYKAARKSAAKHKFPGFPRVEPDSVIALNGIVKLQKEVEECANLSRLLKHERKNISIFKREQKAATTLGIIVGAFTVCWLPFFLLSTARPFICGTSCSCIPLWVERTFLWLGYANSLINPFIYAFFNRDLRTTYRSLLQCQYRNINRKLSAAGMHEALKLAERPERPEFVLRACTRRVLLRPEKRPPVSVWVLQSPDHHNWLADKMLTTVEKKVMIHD

5-HT1a = biological target: T3, 5-HT1a (Homo sapiens, UniProt P08908); experiment: Radioligand binding, 5-HT1a ([3H]8-OH-DPAT); conditions: Table 4; [3H]8-OH-DPAT 0.5 nM; read-out: Binding affinity, IC50 (nM) 5-HT1a
T3 construct: purchased Euroscreen/BioSignal Packard Inc
T3 sequence (P08908 1-422): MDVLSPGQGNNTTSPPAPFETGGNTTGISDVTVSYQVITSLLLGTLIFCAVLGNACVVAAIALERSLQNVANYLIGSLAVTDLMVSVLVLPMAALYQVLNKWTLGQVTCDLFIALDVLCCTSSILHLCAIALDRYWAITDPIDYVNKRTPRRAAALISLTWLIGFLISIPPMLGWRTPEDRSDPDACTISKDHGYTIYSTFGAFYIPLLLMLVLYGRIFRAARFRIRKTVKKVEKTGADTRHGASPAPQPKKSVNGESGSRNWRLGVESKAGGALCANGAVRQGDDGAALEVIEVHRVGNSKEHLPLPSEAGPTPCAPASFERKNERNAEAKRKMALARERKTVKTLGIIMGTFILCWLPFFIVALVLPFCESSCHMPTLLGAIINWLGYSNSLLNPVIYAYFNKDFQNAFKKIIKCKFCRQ
How it was run: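 Receptor-expressing membranes were obtained commercially, and the displacement of radiolabel was then carried out as the supplier's method specifies.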

5-HT2a = biological target: T4, 5-HT2a (Homo sapiens, UniProt P28223); experiment: Radioligand binding, 5-HT2a ([3H]Ketanserin); conditions: Table 4; [3H]Ketanserin 1 nM; read-out: Binding affinity, IC50 (nM) 5-HT2a
T4 construct: purchased Euroscreen/BioSignal Packard Inc
T4 sequence (P28223 whole entry): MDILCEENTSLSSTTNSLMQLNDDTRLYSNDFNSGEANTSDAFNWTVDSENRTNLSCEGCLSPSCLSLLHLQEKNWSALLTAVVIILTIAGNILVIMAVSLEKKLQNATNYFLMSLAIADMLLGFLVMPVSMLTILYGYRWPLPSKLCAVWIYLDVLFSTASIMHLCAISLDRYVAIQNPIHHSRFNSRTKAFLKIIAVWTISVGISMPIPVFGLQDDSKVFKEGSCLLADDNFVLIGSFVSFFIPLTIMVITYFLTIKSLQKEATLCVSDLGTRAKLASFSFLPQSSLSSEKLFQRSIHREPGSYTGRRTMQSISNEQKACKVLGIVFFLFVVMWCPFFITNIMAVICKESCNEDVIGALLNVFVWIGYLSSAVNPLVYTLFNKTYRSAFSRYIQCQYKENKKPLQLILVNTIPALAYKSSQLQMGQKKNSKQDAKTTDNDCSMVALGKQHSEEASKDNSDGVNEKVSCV

5-HT2c = biological target: T5, 5-HT2c (Homo sapiens, UniProt P28335); experiment: Radioligand binding, 5-HT2c ([3H]Mesulergine); conditions: Table 4; [3H]Mesulergine 1 nM; read-out: Binding affinity, IC50 (nM) 5-HT2c
T5 construct: purchased Euroscreen/BioSignal Packard Inc
T5 sequence (P28335 33-458): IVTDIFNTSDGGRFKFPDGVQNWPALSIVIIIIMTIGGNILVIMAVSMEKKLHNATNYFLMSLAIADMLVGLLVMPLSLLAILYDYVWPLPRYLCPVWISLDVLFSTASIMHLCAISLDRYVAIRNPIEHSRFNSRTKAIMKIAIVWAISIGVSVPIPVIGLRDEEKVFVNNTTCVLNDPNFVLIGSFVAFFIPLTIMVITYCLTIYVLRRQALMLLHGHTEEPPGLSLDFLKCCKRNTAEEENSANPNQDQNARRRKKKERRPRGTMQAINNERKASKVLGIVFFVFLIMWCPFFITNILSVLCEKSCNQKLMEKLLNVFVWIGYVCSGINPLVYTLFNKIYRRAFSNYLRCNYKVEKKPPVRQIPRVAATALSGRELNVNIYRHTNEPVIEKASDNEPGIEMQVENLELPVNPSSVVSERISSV

D1 = D1 (Homo sapiens, UniProt P21728); experiment: Radioligand binding, dopamine D1; conditions: Table 4; read-out: Binding affinity, IC50 (nM) D1
Sequence of D1 (P21728 whole entry): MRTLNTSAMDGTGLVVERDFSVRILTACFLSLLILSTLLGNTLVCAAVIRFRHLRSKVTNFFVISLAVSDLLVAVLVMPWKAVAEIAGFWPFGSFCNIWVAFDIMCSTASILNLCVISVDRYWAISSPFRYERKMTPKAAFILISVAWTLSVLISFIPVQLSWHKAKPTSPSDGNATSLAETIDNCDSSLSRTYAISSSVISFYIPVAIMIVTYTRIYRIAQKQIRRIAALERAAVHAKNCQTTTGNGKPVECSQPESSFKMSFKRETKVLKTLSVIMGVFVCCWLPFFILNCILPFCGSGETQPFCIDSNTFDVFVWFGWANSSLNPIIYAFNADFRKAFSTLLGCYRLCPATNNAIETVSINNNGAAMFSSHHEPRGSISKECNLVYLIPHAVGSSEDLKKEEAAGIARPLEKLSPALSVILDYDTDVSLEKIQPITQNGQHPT

hD2L = biological target: T6, hD2L (Homo sapiens, UniProt P14416); experiment: Radioligand binding, dopamine D2 ([3H]spiperone); conditions: Table 4; [3H]spiperone 1 nM; read-out: Binding affinity, IC50 (nM) D2
T6 construct: purchased BioSignal Packard Inc., Montreal, Canada
T6 sequence (P14416 whole entry): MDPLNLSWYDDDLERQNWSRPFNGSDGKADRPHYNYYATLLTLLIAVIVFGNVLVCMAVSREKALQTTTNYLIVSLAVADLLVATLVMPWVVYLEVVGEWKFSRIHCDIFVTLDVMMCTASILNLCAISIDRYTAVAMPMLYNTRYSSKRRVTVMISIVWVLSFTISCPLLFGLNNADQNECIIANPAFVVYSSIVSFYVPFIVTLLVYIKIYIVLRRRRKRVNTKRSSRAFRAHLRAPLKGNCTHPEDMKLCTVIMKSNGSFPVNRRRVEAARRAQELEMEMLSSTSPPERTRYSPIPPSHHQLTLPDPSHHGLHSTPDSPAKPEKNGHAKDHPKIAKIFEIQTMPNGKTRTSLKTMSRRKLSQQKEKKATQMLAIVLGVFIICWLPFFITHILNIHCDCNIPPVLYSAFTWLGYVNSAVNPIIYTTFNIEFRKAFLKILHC
How it was run: (§1)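 Membrane competition binding with [3H]spiperone (1 nM) for hD2L and hD3, or [3H]YM-09151-2 (0.06 nM) for hD4.2, each in receptor-specific Tris-HCl pH 7.4 buffer containing Mg2+/EDTA (D3 and D4 also with K+, Ca2+; D3 with 120 mM NaCl). Compounds were tested at 7-8 concentrations in duplicate, and IC50 was derived by nonlinear regression across three assays.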

hD3 = biological target: T7, hD3 (Homo sapiens, UniProt P35462); experiment: Radioligand binding, dopamine D3 ([3H]spiperone); conditions: Table 4; [3H]spiperone 1 nM; read-out: Binding affinity, IC50 (nM) D3
T7 construct: purchased BioSignal Packard Inc., Montreal, Canada
T7 sequence (P35462 whole entry): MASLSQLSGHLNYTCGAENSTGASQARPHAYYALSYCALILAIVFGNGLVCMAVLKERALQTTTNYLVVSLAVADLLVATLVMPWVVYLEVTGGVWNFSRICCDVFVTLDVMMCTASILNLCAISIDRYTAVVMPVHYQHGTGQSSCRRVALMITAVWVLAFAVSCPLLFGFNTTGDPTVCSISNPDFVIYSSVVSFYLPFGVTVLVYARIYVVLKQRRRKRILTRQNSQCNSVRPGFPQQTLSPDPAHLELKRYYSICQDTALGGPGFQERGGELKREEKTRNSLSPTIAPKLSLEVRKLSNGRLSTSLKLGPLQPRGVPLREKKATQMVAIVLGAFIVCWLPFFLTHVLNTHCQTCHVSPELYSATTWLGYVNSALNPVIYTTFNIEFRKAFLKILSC
How it was run: as §1

hD4.2 receptor = biological target: T8, hD4.2 receptor (Homo sapiens, UniProt P21917, DEL265-296); experiment: Radioligand binding, dopamine D4 ([3H]YM-09151-2); conditions: Table 4; [3H]YM-09151-2 0.06 nM; read-out: Binding affinity, IC50 (nM) D4
T8 construct: purchased BioSignal Packard Inc., Montreal, Canada
T8 sequence (P21917 with tags, fused parts or gaps DEL265-296): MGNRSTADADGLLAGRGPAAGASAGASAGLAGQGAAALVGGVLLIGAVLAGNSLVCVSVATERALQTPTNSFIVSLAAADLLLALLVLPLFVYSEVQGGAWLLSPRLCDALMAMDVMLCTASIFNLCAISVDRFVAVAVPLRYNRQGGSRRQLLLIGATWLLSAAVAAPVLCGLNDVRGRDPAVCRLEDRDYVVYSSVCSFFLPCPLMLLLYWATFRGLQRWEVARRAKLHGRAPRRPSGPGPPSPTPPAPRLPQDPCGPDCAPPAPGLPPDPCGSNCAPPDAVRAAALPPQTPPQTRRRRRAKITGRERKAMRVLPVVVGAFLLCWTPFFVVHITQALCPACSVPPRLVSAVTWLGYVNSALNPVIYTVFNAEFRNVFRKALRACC
How it was run: as §1

Rotarod deficit in mice = type: in vivo, mouse; conditions: mouse, in vivo, po, unit printed as image, read-out: TD50 (median neurotoxic dose)
Method: (§2) The mouse was placed on a 1 inch diameter knurled plastic rod rotating at 6 rpm (Ugo-Basile, Milano, Italy), and the rotarod deficit (%) was obtained by counting the number of animals fallen from the rotating rod within 1 min [Dunham et al., 1957] at 60, 90 and 120 min after the injection of the compound according to the invention(200, 300 or 400 ? ). […] The compounds of the examples were suspended in 3% Tween 80 solution, and were administered (p.o.) 60 min before the testing.

mice = experiment: Rotarod deficit in mice; type: in vivo, mouse
Method: as §2

[2] = Table 2, 1.87 nM [3H]LSD, 37 C, 60 min, read-out: IC50 (nM), binding affinity to the 5-HT6 receptor
[3] = Table 4, read-out: Binding affinity, IC50 (nM) 5-HT6

SMILES | IC50 [1, 2] | IC50 [1, 3] | binding affinity at 5-HT6 receptor labeled by [3H]LSD, in words ([1]; comment on Table 2) | IC50 (5-HT7) | IC50 (5-HT1a) | IC50 (5-HT2a) | IC50 (5-HT2c) | IC50 (D1) | IC50 (hD2L) | IC50 (hD3) | IC50 (hD4.2 receptor) | TD50 at 120 min (Rotarod deficit in mice) | Rotarod deficit (%) (mice; 200 p.o. (dose unit not given)) | Rotarod deficit (%) (mice; 300 p.o. (dose unit not given)) | Rotarod deficit (%) (mice; 400 p.o. (dose unit not given)) | melting point
C[C@]1(c2ccc(O)cc2)C(=O)c2c(N3CCNCC3)cc(Cl)cc2N(Cc2ccccc2)C1=O [Example 14-1, (S)-1-Benzyl-7-chloro-3-(4-hydroxy-phenyl)-3-methyl-5-piperazin-1-yl-1H-quinoline-2,4-dione] | 1.9 nM | 1.9 nM | significant affinities | 9860 nM | 7950 nM | 2000 nM | > 10000 nM | 7070 nM | > 10000 nM | 7650 nM | > 10000 nM | > 400 mg/kg | 0% | 0% | 0% | –
C[C@@]1(c2ccc(O)cc2)C(=O)c2c(N3CCNCC3)cc(Cl)cc2N(Cc2ccccc2)C1=O [Example 14-2, (R)-1-Benzyl-7-chloro-3-(4-hydroxy-phenyl)-3-methyl-5-piperazin-1-yl-1H-quinoline-2,4-dione] | 13.3 nM | 13.3 nM | – | 9240 nM | 5890 nM | 6380 nM | > 10000 nM | 1540 nM | > 10000 nM | 1760 nM | > 10000 nM | > 400 mg/kg | 0% | 0% | 0% | –
CN1CCN(c2cc(Cl)cc3c2C(=O)C(C)(c2ccc(O)cc2)C(=O)N3Cc2cccc(N)c2)CC1 (stereo not drawn) [Example 10, 1-(3-Amino-benzyl)-7-chloro-3-(4-hydroxy-phenyl)-3-methyl-5-(4-methyl-piperazin-1-yl)-1H-quinoline-2,4-dione] | 6.2 nM | 6.2 nM | – | > 10000 nM | > 10000 nM | > 10000 nM | > 10000 nM | > 10000 nM | > 10000 nM | 5370 nM | > 10000 nM | > 400 mg/kg | 0% | 0% | 0% | –
CC1(c2cccc(O)c2)C(=O)c2c(N3CCNCC3)cc(Cl)cc2N(Cc2ccccc2)C1=O (stereo not drawn) [Example 51, 1-Benzyl-7-chloro-3-(3-hydroxy-phenyl)-3-methyl-5-piperazin-1-yl-1H-quinoline-2,4-dione] | 6.2 nM | 20.7 nM | – | 7580 nM | 8450 nM | 7550 nM | 8740 nM | 6390 nM | 8650 nM | 9880 nM | 9460 nM | – | – | – | – | 238 to 240 °C
CN1CCN(c2cc(Cl)cc3c2C(=O)C(C)(c2ccc(O)cc2)C(=O)N3Cc2cccc([N+](=O)[O-])c2)CC1 (stereo not drawn) [Example 8, 7-Chloro-3-(4-hydroxy-phenyl)-3-methyl-5-(4-methyl-piperazin-1-yl)-1-(3-nitro-benzyl)-1H-quinoline-2,4-dione] | 23.8 nM | 16.8 nM | – | 9440 nM | 7510 nM | 6950 nM | 8810 nM | 7040 nM | 7290 nM | 9020 nM | 9150 nM | – | – | – | – | 262 to 264 °C
CC1(c2ccc(O)cc2)C(=O)c2c(N3CCNCC3)cc(Cl)cc2N(CC2CCCCC2)C1=O (stereo not drawn) [Example 49, 7-Chloro-1-cyclohexylmethyl-3-(4-hydroxy-phenyl)-3-methyl-5-piperazin-1-yl-1H-quinoline-2,4-dione] | 11.7 nM | 17.5 nM | – | 9510 nM | 6300 nM | 5810 nM | 7530 nM | 8140 nM | > 10000 nM | 8680 nM | 8780 nM | – | – | – | – | 175 to 176 °C
COc1ccc(C2(C)C(=O)c3c(N4CCNCC4)cc(Cl)cc3N(Cc3cccc(N)c3)C2=O)cc1 (stereo not drawn) [Example 25, 1-(3-Amino-benzyl)-7-chloro-3-(4-methoxy-phenyl)-3-methyl-5-piperazin-1yl-1H-quinoline-2,4-dione] | 6.2 nM | 15.9 nM | – | 8050 nM | 5890 nM | 6610 nM | 7600 nM | 6520 nM | 7650 nM | 9660 nM | 9750 nM | – | – | – | – | 183 to 184 °C
